Active and inactive are the calls of the source. The calls are words filed in the database; no cut-off is given here.
What was measured:
RAW264.7 [1] = experiment: Cytotoxicity against mouse RAW264.7 cells upto 20 uM incubated for 24 hrs by CCK-8 assay; type: toxicity, cell-based; conditions: raw264.7, 24 h
RAW264.7 [2] = experiment: Anti-inflammatory activity against mouse RAW264.7 cells assessed as inhibition of LPS-induced NO production at 20 uM incubated for 24 hrs; type: functional, cell-based
RAW264.7 [3] = experiment: Anti-inflammatory activity against mouse RAW264.7 cells assessed as inhibition of LPS-stimulated nitric oxide production at 2.5 to 20 uM incubated for 5 hrs by Griess reagent based microplate reader analysis; type: functional, cell-based; conditions: dose 2.5-20 µM
RAW264.7 [4] = experiment: Anti-inflammatory activity against mouse RAW264.7 cells assessed as reduction in NO level pretreated with compound for 1 hr followed by LPS-induction and measured after 24 hrs; type: functional, cell-based; conditions: dose 1.25-20 µM, time 25.0 hrs
RAW264.7 [5] = experiment: Anti-inflammatory activity against mouse RAW264.7 cells assessed as reduction in LPS-induced IL-6 level pretreated with compound for 1 hr followed by LPS-induction and measured after 24 hrs by ELISA analysis; type: functional, cell-based; conditions: dose 1.25-20 µM, time 25.0 hrs
RAW264.7 [6] = experiment: Anti-inflammatory activity against mouse RAW264.7 cells assessed as reduction in LPS-induced TNF-alpha level pretreated with compound for 1 hr followed by LPS-induction and measured after 24 hrs by ELISA analysis; type: functional, cell-based; conditions: dose 1.25-20 µM, time 25.0 hrs
RAW264.7 [7] = experiment: Anti-inflammatory activity against mouse RAW264.7 cells assessed as reduction in LPS-induced IL-1beta level pretreated with compound for 1 hr followed by LPS-induction and measured after 24 hrs by ELISA analysis; type: functional, cell-based; conditions: dose 1.25-20 µM, time 25.0 hrs
RAW264.7 [8] = experiment: Anti-inflammatory activity against mouse RAW264.7 cells assessed as inhibition of LPS-induced IL-6 mRNA expression pretreated with compound for 1 hr followed by LPS-induction and measured after 24 hrs by RT-qPCR analysis; type: functional, cell-based; conditions: dose 10-20 µM, time 25.0 hrs
RAW264.7 [9] = experiment: Anti-inflammatory activity against mouse RAW264.7 cells assessed as inhibition of LPS-induced TNF-alpha mRNA expression pretreated with compound for 1 hr followed by LPS-induction and measured after 24 hrs by RT-qPCR analysis; type: functional, cell-based; conditions: dose 10-20 µM, time 25.0 hrs
RAW264.7 [10] = experiment: Anti-inflammatory activity against mouse RAW264.7 cells assessed as inhibition of LPS-induced IL-1beta mRNA expression pretreated with compound for 1 hr followed by LPS-induction and measured after 24 hrs by RT-qPCR analysis; type: functional, cell-based; conditions: dose 10-20 µM, time 25.0 hrs
RAW264.7 [11] = experiment: Anti-inflammatory activity against mouse RAW264.7 cells assessed as inhibition of LPS-induced p65 phosphorylation at 10 to 20 uM pretreated with compound for 1 hr followed by LPS-induction and measured after 4 hrs by Western blot analysis; type: functional, cell-based; conditions: dose 10-20 µM, time 5.0 hrs
RAW264.7 [12] = experiment: Anti-inflammatory activity against mouse RAW264.7 cells assessed as reduction in LPS-induced IkappaBalpha level at 10 to 20 uM pretreated with compound for 1 hr followed by LPS-induction and measured after 4 hrs by Western blot analysis; type: functional, cell-based; conditions: dose 10-20 µM, time 5.0 hrs
RAW264.7 [13] = experiment: Anti-inflammatory activity against mouse RAW264.7 cells assessed as inhibition of LPS-induced nuclear translocation at 10 to 20 uM pretreated with compound for 1 hr followed by LPS-induction and measured after 4 hrs by DAPI staining based fluorescence microscopic analysis; type: functional, cell-based; conditions: dose 10-20 µM, time 5.0 hrs
Mus musculus [14] = experiment: Anti-inflammatory activity against LPS-induced acute […] injury C57BL/6 mouse model assessed as reduction in IL-6 level in BALF at 20 mg/kg, ip administered for 1 hr and measured after 6 hrs by ELISA analysis; type: functional, organism-based; conditions: time 7.0 hrs
Mus musculus [15] = experiment: Anti-inflammatory activity against LPS-induced acute […] injury C57BL/6 mouse model assessed as reduction in TNF-alpha level in BALF at 20 mg/kg, ip administered for 1 hr and measured after 6 hrs by ELISA analysis; type: functional, organism-based; conditions: time 7.0 hrs
Mus musculus [16] = experiment: Anti-inflammatory activity against LPS-induced acute […] injury C57BL/6 mouse model assessed as reduction in IL-1beta level in BALF at 20 mg/kg, ip administered for 1 hr and measured after 6 hrs by ELISA analysis; type: functional, organism-based; conditions: time 7.0 hrs
Mus musculus [17] = experiment: Anti-inflammatory activity against LPS-induced acute […] injury C57BL/6 mouse model assessed as reduction in IL-6 level in serum at 20 mg/kg, ip administered for 1 hr and measured after 6 hrs by ELISA analysis; type: functional, organism-based; conditions: time 7.0 hrs
Mus musculus [18] = experiment: Anti-inflammatory activity against LPS-induced acute […] injury C57BL/6 mouse model assessed as reduction in TNF-alpha level in serum at 20 mg/kg, ip administered for 1 hr and measured after 6 hrs by ELISA analysis; type: functional, organism-based; conditions: time 7.0 hrs
Mus musculus [19] = experiment: Anti-inflammatory activity against LPS-induced acute […] injury C57BL/6 mouse model assessed as reduction in IL-1beta level in serum at 20 mg/kg, ip administered for 1 hr and measured after 6 hrs by ELISA analysis; type: functional, organism-based; conditions: time 7.0 hrs
Mus musculus [20] = experiment: Anti-inflammatory activity against LPS-induced acute […] injury C57BL/6 mouse model assessed as improvement in destruction of lung structure at 20 mg/kg, ip administered for 1 hr and measured after 6 hrs by H and E staining based analysis; type: functional, organism-based; conditions: time 7.0 hrs
Mus musculus [21] = experiment: Anti-inflammatory activity against LPS-induced acute […] injury C57BL/6 mouse model assessed as improvement in lung edema at 20 mg/kg, ip administered for 1 hr and measured after 6 hrs by H and E staining based analysis; type: functional, organism-based; conditions: time 7.0 hrs
Mus musculus [22] = experiment: Anti-inflammatory activity against LPS-induced acute […] injury C57BL/6 mouse model assessed as improvement in alveolar wall thickness at 20 mg/kg, ip administered for 1 hr and measured after 6 hrs by H and E staining based analysis; type: functional, organism-based; conditions: time 7.0 hrs
Mus musculus [23] = experiment: Anti-inflammatory activity against LPS-induced acute […] injury C57BL/6 mouse model assessed as improvement in pulmonary hemorrhage at 20 mg/kg, ip administered for 1 hr and measured after 6 hrs by H and E staining based analysis; type: functional, organism-based; conditions: time 7.0 hrs
Mus musculus [24] = experiment: Anti-inflammatory activity against LPS-induced acute […] injury C57BL/6 mouse model assessed as reduction in inflammatory cell infiltration at 20 mg/kg, ip administered for 1 hr and measured after 6 hrs by H and E staining based analysis; type: functional, organism-based; conditions: time 7.0 hrs
Mus musculus [25] = experiment: Anti-inflammatory activity against LPS-induced acute […] injury C57BL/6 mouse model assessed as reduction in lung edema at 20 mg/kg, ip administered for 1 hr and measured after 6 hrs by H and E staining based analysis; type: functional, organism-based; conditions: time 7.0 hrs
Mus musculus [26] = experiment: Anti-inflammatory activity against LPS-induced acute […] injury C57BL/6 mouse model assessed as improvement in alveolar structure at 20 mg/kg, ip administered for 1 hr and measured after 6 hrs by H and E staining based analysis; type: functional, organism-based; conditions: time 7.0 hrs
Mus musculus [27] = experiment: Anti-inflammatory activity against LPS-induced acute […] injury C57BL/6 mouse model assessed as reduction in bleeding points in lung at 20 mg/kg, ip administered for 1 hr and measured after 6 hrs by H and E staining based analysis; type: functional, organism-based; conditions: time 7.0 hrs
Mus musculus [28] = experiment: Anti-inflammatory activity against LPS-induced acute […] injury C57BL/6 mouse model assessed as reduction in congestion in lung at 20 mg/kg, ip administered for 1 hr and measured after 6 hrs by H and E staining based analysis; type: functional, organism-based; conditions: time 7.0 hrs
Mus musculus [29] = experiment: Anti-inflammatory activity against LPS-induced acute […] injury C57BL/6 mouse model assessed as reduction in alveolar thickness in lung at 20 mg/kg, ip administered for 1 hr and measured after 6 hrs by H and E staining based analysis; type: functional, organism-based; conditions: time 7.0 hrs
Mus musculus [30] = experiment: Anti-inflammatory activity against LPS-induced acute […] injury C57BL/6 mouse model assessed as reduction in wet weight to dry weight ratio in lung at 20 mg/kg, ip administered for 1 hr and measured after 6 hrs; type: functional, organism-based; conditions: time 7.0 hrs
Mus musculus [31] = experiment: Anti-inflammatory activity against LPS-induced acute […] injury C57BL/6 mouse model assessed as decrease in IL-6 mRNA expression in lung at 20 mg/kg, ip administered for 1 hr and measured after 6 hrs by RT-qPCR analysis; type: functional, organism-based; conditions: time 7.0 hrs
Mus musculus [32] = experiment: Anti-inflammatory activity against LPS-induced acute […] injury C57BL/6 mouse model assessed as decrease in TNF-alpha mRNA expression in lung at 20 mg/kg, ip administered for 1 hr and measured after 6 hrs by RT-qPCR analysis; type: functional, organism-based; conditions: time 7.0 hrs
Mus musculus [33] = experiment: Anti-inflammatory activity against LPS-induced acute […] injury C57BL/6 mouse model assessed as decrease in IL-1beta mRNA expression in lung at 20 mg/kg, ip administered for 1 hr and measured after 6 hrs by RT-qPCR analysis; type: functional, organism-based; conditions: time 7.0 hrs

COc1cc(C[C@H](C(=O)N2CCN(c3cccc(C)c3C)CC2)[C@@H](Cc2cc(OC)c(O)c(OC)c2)C(=O)N2CCN(c3cccc(C)c3C)CC2)cc(OC)c1O
Activity (RAW264.7 [1]): Non-Toxic
Activity (RAW264.7 [2]): Active
Activity (RAW264.7 [3]): Active
Activity (RAW264.7 [4]): Dose-Dependent Effect
Activity (RAW264.7 [5]): Dose-Dependent Effect
Activity (RAW264.7 [6]): Dose-Dependent Effect
Activity (RAW264.7 [7]): Dose-Dependent Effect
Activity (RAW264.7 [8]): Dose-Dependent Effect
Activity (RAW264.7 [9]): Dose-Dependent Effect
Activity (RAW264.7 [10]): Dose-Dependent Effect
Activity (RAW264.7 [11]): Active
Activity (RAW264.7 [12]): Active
Activity (RAW264.7 [13]): Active
Activity (Mus musculus [14]): Active
Activity (Mus musculus [15]): Active
Activity (Mus musculus [16]): Active
Activity (Mus musculus [17]): Active
Activity (Mus musculus [18]): Active
Activity (Mus musculus [19]): Active
Activity (Mus musculus [20]): Active
Activity (Mus musculus [21]): Active
Activity (Mus musculus [22]): Active
Activity (Mus musculus [23]): Active
Activity (Mus musculus [24]): Active
Activity (Mus musculus [25]): Active
Activity (Mus musculus [26]): Active
Activity (Mus musculus [27]): Active
Activity (Mus musculus [28]): Active
Activity (Mus musculus [29]): Active
Activity (Mus musculus [30]): Active
Activity (Mus musculus [31]): Active
Activity (Mus musculus [32]): Active
Activity (Mus musculus [33]): Active

COc1cc(/C=C/C(=O)OC[C@H](Cc2cc(OC)c(O)c(OC)c2)[C@@H](COC(=O)/C=C/c2ccc(O)c(OC)c2)Cc2cc(OC)c(O)c(OC)c2)ccc1O
Activity (Mus musculus [20]): Active
Activity (Mus musculus [21]): Active
Activity (Mus musculus [22]): Active
Activity (Mus musculus [23]): Active
Activity (Mus musculus [24]): Active
Activity (Mus musculus [25]): Active
Activity (Mus musculus [26]): Active
Activity (Mus musculus [27]): Active
Activity (Mus musculus [28]): Active
Activity (Mus musculus [29]): Active
Activity (Mus musculus [30]): Active
